Numbered stars: 1 amine (or outer) side, 2 acyl side, 3 side chain; on linkers, the order of the positions; unused ones are H or OH. Bridge positions count the residues as written; N and C are the ends. Side chains are listed from the residue outwards. Peptide text beside a SMILES is read from it. * marks the point of attachment. C20 diacid = O=C(O)CCCCCCCCCCCCCCCCCCC(=O)*; γGlu = O=C(O)[C@H](CCC(=O)[*:2])N[*:1]; AEEA = NCCOCCOCC(=O)O
What was measured:
[1] = tested on: Sprague Dawley (SD) rats; assay: ASSAY (I) efficacy testing on appetite (food intake) using an ad libitum fed rat model; assay type: in vivo; details: rat, 30 nmol/kg
Outline: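 Ad libitum fed SD rats (200–250 g) were housed singly on a reversed light/dark cycle and given one 0.01–3 mg/kg dose ip, po or sc just before lights-off, with 5–8 per dose group plus vehicle controls. Food intake was recorded hourly for 7 h, then at 24 h and sometimes 48 h; Grubbs outliers were excluded.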

[2] = target: T1, rat amylin receptor (rat calcitonin receptor + rat RAMP 3) (Rattus norvegicus, UniProt P32214+Q9JJ73); assay: ASSAY (VI) binding to the rat amylin receptor; details: for IC50: binding to rat amylin receptor, read-out: rAmylin-R bind IC50
T1 construct: expressed in transfected cells; host or cells: BHK tk'ts 13 (transient, FuGENE 6), membranes
T1 sequence (P32214 25-479 isoform P32214-2 limits assumed): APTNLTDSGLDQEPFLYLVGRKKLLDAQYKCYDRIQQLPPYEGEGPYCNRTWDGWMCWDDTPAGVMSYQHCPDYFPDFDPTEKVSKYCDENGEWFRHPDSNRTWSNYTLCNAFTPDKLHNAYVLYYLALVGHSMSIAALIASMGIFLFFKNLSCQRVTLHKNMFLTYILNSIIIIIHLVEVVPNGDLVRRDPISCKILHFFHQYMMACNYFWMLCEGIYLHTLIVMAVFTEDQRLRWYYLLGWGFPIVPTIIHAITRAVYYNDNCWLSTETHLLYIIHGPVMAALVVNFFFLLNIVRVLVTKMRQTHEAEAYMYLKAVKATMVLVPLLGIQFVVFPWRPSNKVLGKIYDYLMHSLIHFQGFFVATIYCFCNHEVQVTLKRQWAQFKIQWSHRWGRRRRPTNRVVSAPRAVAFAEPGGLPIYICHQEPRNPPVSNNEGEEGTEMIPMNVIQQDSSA
T1 sequence (Q9JJ73 23-147 partner): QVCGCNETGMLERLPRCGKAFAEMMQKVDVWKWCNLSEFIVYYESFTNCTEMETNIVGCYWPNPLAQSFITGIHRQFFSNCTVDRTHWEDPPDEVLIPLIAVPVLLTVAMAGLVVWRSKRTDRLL
Outline: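 This assay measured binding to the rat amylin receptor. BHK tk′ts 13 cells were transiently transfected with the rat calcitonin receptor using FuGENE® 6 (Roche), following the manufacturer's recommendations. About 48 hours after transfection, the cells were harvested and membranes were prepared from them for the binding determination.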

[3] = target: T2, rat calcitonin receptor (Rattus norvegicus, UniProt P32214); assay: ASSAY (VIII) binding to the rat calcitonin receptor; details: Table 7, read-out: rCTR bind IC50
T2 construct: expressed in transfected cells; host or cells: BHK tk'ts 13 (transient, FuGENE 6), membranes
T2 sequence (P32214 25-479 isoform P32214-2 limits assumed): T1 sequence (P32214 25-479 isoform P32214-2 limits assumed)
Outline: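 Transfect BHK tk′ts 13 cells transiently with rat calcitonin receptor, culture in DMEM containing 10% FBS, collect cells about 48 hours later, then prepare membranes.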

[4] = Table 7, rat binding selectivity, rCTR IC50 / rAmylin-R IC50
[5] = Table 7a (preferred compounds), rat binding selectivity, rCTR IC50 / rAmylin-R IC50
[6] = ratio of rCTR bind IC50 to rAmylin-R bind IC50

Row | IC50 ([2]; Table 7) [nM] | Ratio rCT/rAmylin binding [2, 4] | Ratio rCT/rAmylin binding [2, 5] | Ratio rCT/rAmylin binding [2, 6] | IC50 [3] [nM] | Structure (SMILES) | Food intake reduction 0-24 h 30 nmol/kg (%) [1] [%] | Food intake reduction 24-48 h 30 nmol/kg (%) [1] [%]
1 | 0.686 | 56.8 | 56.8 | 56.8 | 38.9 | CC[C@H](C)[C@H](NC(=O)[C@H](C)NC(=O)CNC(=O)[C@H](Cc1ccccc1)NC(=O)[C@H](CC(N)=O)NC(=O)[C@@H]1CCCN1C(=O)[C@H](CO)NC(=O)[C@H](CO)NC(=O)[C@H](Cc1c[nH]cn1)NC(=O)[C@H](CCCNC(=N)N)NC(=O)[C@H](CC(C)C)NC(=O)[C@H](Cc1ccccc1)NC(=O)[C@H](CC(N)=O)NC(=O)[C@H](C)NC(=O)[C@H](CC(C)C)NC(=O)[C@H](CCCNC(=N)N)NC(=O)[C@H](CCC(N)=O)NC(=O)[C@@H](NC(=O)[C@H](C)NC(=O)[C@@H]1CSSC[C@H](NC(=O)[C@@H](N)CCCCNC(=O)COCCOCCNC(=O)CC[C@H](NC(=O)CCCCCCCCCCCCCCCCCCC(=O)O)C(=O)O)C(=O)N[C@@H](CC(N)=O)C(=O)N[C@@H]([C@@H](C)O)C(=O)N[C@@H](C)C(=O)N[C@@H]([C@@H](C)O)C(=O)N1)[C@@H](C)O)C(=O)N1CCC[C@H]1C(=O)N[C@@H](CO)C(=O)N[C@@H](CO)C(=O)N[C@H](C(=O)N[C@@H](CC(N)=O)C(=O)N[C@H](C(=O)NCC(=O)N[C@@H](Cc1c[nH]cn1)C(=O)N[C@@H](CC(N)=O)C(=O)N[C@H](C(=O)N[C@@H](Cc1ccc(O)cc1)C(N)=O)[C@@H](C)O)C(C)C)[C@@H](C)O [Example 76] (H-K([AEEA-γGlu-C20 diacid])CNTATCATQRLANFLRHSSPNFGAIPSSTNVGHNTY-NH2; disulfide 2-7; N-terminus assumed) | 31 | 2
2 | 1.5 | 136.8 | 136.8 | 136.8 | 205 | CC[C@H](C)[C@H](NC(=O)[C@H](C)NC(=O)CNC(=O)[C@H](Cc1ccccc1)NC(=O)[C@H](CC(N)=O)NC(=O)[C@@H]1CCCN1C(=O)[C@H](CO)NC(=O)[C@H](CO)NC(=O)[C@H](Cc1c[nH]cn1)NC(=O)[C@H](CCCNC(=N)N)NC(=O)[C@H](CC(C)C)NC(=O)[C@H](Cc1ccccc1)NC(=O)[C@H](CC(N)=O)NC(=O)[C@H](C)NC(=O)[C@H](CC(C)C)NC(=O)[C@H](CCCNC(=N)N)NC(=O)[C@H](CCC(N)=O)NC(=O)[C@@H](NC(=O)[C@H](C)NC(=O)[C@@H]1CSSC[C@H](NC(=O)[C@@H](N)CCCCNC(=O)CC[C@H](NC(=O)CCCCCCCCCCCCCCCCCCC(=O)O)C(=O)O)C(=O)N[C@@H](CC(N)=O)C(=O)N[C@@H]([C@@H](C)O)C(=O)N[C@@H](C)C(=O)N[C@@H]([C@@H](C)O)C(=O)N1)[C@@H](C)O)C(=O)N1CCC[C@H]1C(=O)N[C@@H](CO)C(=O)N[C@@H](CO)C(=O)N[C@H](C(=O)N[C@@H](CC(N)=O)C(=O)N[C@H](C(=O)NCC(=O)N[C@@H](Cc1c[nH]cn1)C(=O)N[C@@H](CC(N)=O)C(=O)N[C@H](C(=O)N[C@@H](Cc1ccc(O)cc1)C(N)=O)[C@@H](C)O)C(C)C)[C@@H](C)O [Example 77] | 40 | 16
3 | 1.67 | 36.2 | 36.2 | 36.2 | 60.4 | CC[C@H](C)[C@H](NC(=O)[C@H](C)NC(=O)CNC(=O)[C@H](Cc1ccccc1)NC(=O)[C@H](CC(N)=O)NC(=O)[C@@H]1CCCN1C(=O)[C@H](CO)NC(=O)[C@H](CO)NC(=O)[C@H](Cc1c[nH]cn1)NC(=O)[C@H](CCCNC(=N)N)NC(=O)[C@H](CC(C)C)NC(=O)[C@H](Cc1ccccc1)NC(=O)[C@H](Cc1c[nH]cn1)NC(=O)[C@H](C)NC(=O)[C@H](CC(C)C)NC(=O)[C@H](CCCNC(=N)N)NC(=O)[C@H](CCC(N)=O)NC(=O)[C@@H](NC(=O)[C@H](C)NC(=O)[C@@H]1CSSC[C@H](NC(=O)[C@@H](N)CCCCNC(=O)COCCOCCNC(=O)CC[C@H](NC(=O)CCCCCCCCCCCCCCCCCCC(=O)O)C(=O)O)C(=O)N[C@@H](CC(N)=O)C(=O)N[C@@H]([C@@H](C)O)C(=O)N[C@@H](C)C(=O)N[C@@H]([C@@H](C)O)C(=O)N1)[C@@H](C)O)C(=O)N1CCC[C@H]1C(=O)N[C@@H](CO)C(=O)N[C@@H](CO)C(=O)N[C@H](C(=O)N[C@@H](CC(N)=O)C(=O)N[C@H](C(=O)NCC(=O)N[C@@H](Cc1c[nH]cn1)C(=O)N[C@@H](CC(N)=O)C(=O)N[C@H](C(=O)N[C@@H](Cc1ccc(O)cc1)C(N)=O)[C@@H](C)O)C(C)C)[C@@H](C)O [Example 80] (H-K([AEEA-γGlu-C20 diacid])CNTATCATQRLAHFLRHSSPNFGAIPSSTNVGHNTY-NH2; disulfide 2-7; N-terminus assumed) | 46 | 9
4 | 1.42 | 42.9 | 42.9 | 42.9 | 61.1 | CC[C@H](C)[C@H](NC(=O)[C@H](C)NC(=O)CNC(=O)[C@H](Cc1ccccc1)NC(=O)[C@H](CC(N)=O)NC(=O)[C@@H]1CCCN1C(=O)[C@H](CO)NC(=O)[C@H](CO)NC(=O)[C@H](Cc1c[nH]cn1)NC(=O)[C@H](CCCNC(=N)N)NC(=O)[C@H](CC(C)C)NC(=O)[C@H](Cc1ccccc1)NC(=O)[C@H](Cc1c[nH]cn1)NC(=O)[C@H](C)NC(=O)[C@H](CC(C)C)NC(=O)[C@H](CCCNC(=N)N)NC(=O)[C@H](CCC(N)=O)NC(=O)[C@@H](NC(=O)[C@H](C)NC(=O)[C@@H]1CSSC[C@H](NC(=O)[C@@H](N)CCCCNC(=O)CC[C@H](NC(=O)CCCCCCCCCCCCCCCCCCC(=O)O)C(=O)O)C(=O)N[C@@H](CC(N)=O)C(=O)N[C@@H]([C@@H](C)O)C(=O)N[C@@H](C)C(=O)N[C@@H]([C@@H](C)O)C(=O)N1)[C@@H](C)O)C(=O)N1CCC[C@H]1C(=O)N[C@@H](CO)C(=O)N[C@@H](CO)C(=O)N[C@H](C(=O)N[C@@H](CC(N)=O)C(=O)N[C@H](C(=O)NCC(=O)N[C@@H](Cc1c[nH]cn1)C(=O)N[C@@H](CC(N)=O)C(=O)N[C@H](C(=O)N[C@@H](Cc1ccc(O)cc1)C(N)=O)[C@@H](C)O)C(C)C)[C@@H](C)O [Example 81] (H-K([γGlu-C20 diacid])CNTATCATQRLAHFLRHSSPNFGAIPSSTNVGHNTY-NH2; disulfide 2-7; N-terminus assumed) | 40 | 3
5 | 5.05 | 94.3 | 94.3 | 94.3 | 477 | CC[C@H](C)[C@H](NC(=O)[C@H](C)NC(=O)CNC(=O)[C@H](Cc1ccccc1)NC(=O)[C@H](CC(N)=O)NC(=O)[C@@H]1CCCN1C(=O)[C@H](CO)NC(=O)[C@H](CO)NC(=O)[C@H](Cc1c[nH]cn1)NC(=O)[C@H](CCCNC(=N)N)NC(=O)[C@H](CC(C)C)NC(=O)[C@H](Cc1ccccc1)NC(=O)[C@H](Cc1c[nH]cn1)NC(=O)[C@H](C)NC(=O)[C@H](CC(C)C)NC(=O)[C@H](CCCNC(=N)N)NC(=O)[C@H](CCC(N)=O)NC(=O)[C@@H](NC(=O)[C@H](C)NC(=O)[C@@H]1CSSC[C@H](NC(=O)[C@@H](N)CCCCNC(=O)COCCOCCNC(=O)CC[C@H](NC(=O)CCCCCCCCCCCCCCCCCCC(=O)O)C(=O)O)C(=O)N[C@@H](CC(N)=O)C(=O)N[C@@H]([C@@H](C)O)C(=O)N[C@@H](C)C(=O)N[C@@H]([C@@H](C)O)C(=O)N1)[C@@H](C)O)C(=O)N1CCC[C@H]1C(=O)N[C@@H](CO)C(=O)N[C@@H](CO)C(=O)N[C@H](C(=O)N[C@@H](CC(N)=O)C(=O)N[C@H](C(=O)NCC(=O)N[C@@H](CCCNC(=N)N)C(=O)N[C@@H](CC(N)=O)C(=O)N[C@H](C(=O)N[C@@H](Cc1ccc(O)cc1)C(N)=O)[C@@H](C)O)C(C)C)[C@@H](C)O [Example 84] (H-K([AEEA-γGlu-C20 diacid])CNTATCATQRLAHFLRHSSPNFGAIPSSTNVGRNTY-NH2; disulfide 2-7 (inferred); N-terminus assumed) | 10 | 0

— US9023789B2, “Amylin analogs and pharmaceutical compositions thereof” (Novo Nordisk A/S, priority 2012, dated 2015)
